In assay [1] the target is T1, PI3Kdelta (Homo sapiens, UniProt O00329).
T1 construct: purchased Upstate; Millipore 14-604
The assay is described as follows: HTRF PI3K biochemical assay, delta isoform. The note with it: 0.3 nM enzyme, 100 uM ATP, 5 uM PIP2, form screened (Neutral or TFA salt) given per compound. The method, boiled down: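 PI3Kδ at 0.3 nM with 100 uM ATP and 5 uM PIP2, 10-point 3-fold dilutions, 15 min enzyme–compound pre-incubation, then 1 h reaction at room temperature. PIP3 formation detected by HTRF displacement of biotin-PIP3 from GST-GRP1-PH (665/620 nm ratio). IC50 corrected using a PIP3 standard curve.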

For assay [2], the target named is T2, PI3Kalpha (Homo sapiens, UniProt P42336).
T2 construct: purchased Upstate; Millipore 14-602
T2 sequence (P42336 whole entry): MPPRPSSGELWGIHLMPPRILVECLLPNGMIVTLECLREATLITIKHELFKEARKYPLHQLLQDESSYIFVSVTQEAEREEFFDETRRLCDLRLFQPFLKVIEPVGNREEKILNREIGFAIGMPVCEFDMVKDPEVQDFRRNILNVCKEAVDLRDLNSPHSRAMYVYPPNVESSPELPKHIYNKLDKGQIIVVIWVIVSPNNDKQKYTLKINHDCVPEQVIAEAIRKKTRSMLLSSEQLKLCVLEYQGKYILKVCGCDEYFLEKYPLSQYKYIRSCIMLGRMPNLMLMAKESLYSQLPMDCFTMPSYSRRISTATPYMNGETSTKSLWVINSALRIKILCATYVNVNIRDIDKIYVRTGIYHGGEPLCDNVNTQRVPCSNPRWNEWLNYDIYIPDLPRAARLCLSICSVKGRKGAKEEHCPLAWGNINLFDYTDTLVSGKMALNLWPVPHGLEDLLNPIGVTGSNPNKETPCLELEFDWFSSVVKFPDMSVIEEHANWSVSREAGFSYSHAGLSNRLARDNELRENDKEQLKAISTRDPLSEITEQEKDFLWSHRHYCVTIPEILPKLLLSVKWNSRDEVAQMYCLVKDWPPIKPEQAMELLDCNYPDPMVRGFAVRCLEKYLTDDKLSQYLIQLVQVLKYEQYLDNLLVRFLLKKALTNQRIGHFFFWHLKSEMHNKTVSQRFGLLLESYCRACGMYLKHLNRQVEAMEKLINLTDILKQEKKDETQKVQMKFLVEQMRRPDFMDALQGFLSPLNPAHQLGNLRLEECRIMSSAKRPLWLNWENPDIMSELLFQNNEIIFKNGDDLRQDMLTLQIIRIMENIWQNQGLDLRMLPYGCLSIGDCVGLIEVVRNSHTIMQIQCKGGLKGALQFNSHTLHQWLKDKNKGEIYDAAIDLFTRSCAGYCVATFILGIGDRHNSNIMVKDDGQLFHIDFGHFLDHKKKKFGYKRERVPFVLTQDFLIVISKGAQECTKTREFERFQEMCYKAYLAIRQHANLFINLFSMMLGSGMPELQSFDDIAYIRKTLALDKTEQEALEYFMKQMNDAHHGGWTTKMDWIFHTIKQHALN
T2 sequence (P27986 whole entry partner): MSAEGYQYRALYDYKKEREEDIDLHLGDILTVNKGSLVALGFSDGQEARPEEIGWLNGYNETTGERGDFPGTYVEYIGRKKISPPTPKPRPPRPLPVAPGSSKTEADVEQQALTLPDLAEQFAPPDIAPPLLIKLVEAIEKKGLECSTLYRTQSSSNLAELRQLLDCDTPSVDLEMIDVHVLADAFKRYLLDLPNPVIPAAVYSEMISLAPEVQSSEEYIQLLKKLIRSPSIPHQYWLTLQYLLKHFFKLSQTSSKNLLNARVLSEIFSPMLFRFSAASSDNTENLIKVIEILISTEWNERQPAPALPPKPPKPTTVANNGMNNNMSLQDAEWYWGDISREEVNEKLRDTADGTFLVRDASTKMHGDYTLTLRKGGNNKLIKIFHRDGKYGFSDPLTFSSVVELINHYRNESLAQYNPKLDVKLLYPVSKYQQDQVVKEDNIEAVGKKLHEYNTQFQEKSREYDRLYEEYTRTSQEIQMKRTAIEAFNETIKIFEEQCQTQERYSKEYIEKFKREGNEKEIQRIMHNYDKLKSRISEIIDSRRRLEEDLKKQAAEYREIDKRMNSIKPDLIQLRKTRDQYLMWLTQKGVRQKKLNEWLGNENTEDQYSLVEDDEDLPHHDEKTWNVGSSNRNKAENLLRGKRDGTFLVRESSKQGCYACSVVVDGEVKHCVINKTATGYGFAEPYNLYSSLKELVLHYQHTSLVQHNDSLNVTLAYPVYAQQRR
Kind of assay: HTRF PI3K biochemical assay, alpha isoform (selectivity versus delta). The note with it: relative ratio PI3K-alpha IC50 value / PI3K-delta IC50 value. Summed up:
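Recombinant PI3Kα (0.5 nM) pre-incubated 15 min with compound, then reacted 1 h at room temperature with 5 μM PIP2 and 100 μM ATP. After EDTA stop, PIP3 measured by HTRF displacement of biotin-PIP3 from GST-GRP1 PH domain (665/620 nm). 10-point dose response; IC50 corrected using a PIP3 standard curve.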

The term IC50 denotes the concentration that gives 50% inhibition.

T1 sequence (O00329 whole entry): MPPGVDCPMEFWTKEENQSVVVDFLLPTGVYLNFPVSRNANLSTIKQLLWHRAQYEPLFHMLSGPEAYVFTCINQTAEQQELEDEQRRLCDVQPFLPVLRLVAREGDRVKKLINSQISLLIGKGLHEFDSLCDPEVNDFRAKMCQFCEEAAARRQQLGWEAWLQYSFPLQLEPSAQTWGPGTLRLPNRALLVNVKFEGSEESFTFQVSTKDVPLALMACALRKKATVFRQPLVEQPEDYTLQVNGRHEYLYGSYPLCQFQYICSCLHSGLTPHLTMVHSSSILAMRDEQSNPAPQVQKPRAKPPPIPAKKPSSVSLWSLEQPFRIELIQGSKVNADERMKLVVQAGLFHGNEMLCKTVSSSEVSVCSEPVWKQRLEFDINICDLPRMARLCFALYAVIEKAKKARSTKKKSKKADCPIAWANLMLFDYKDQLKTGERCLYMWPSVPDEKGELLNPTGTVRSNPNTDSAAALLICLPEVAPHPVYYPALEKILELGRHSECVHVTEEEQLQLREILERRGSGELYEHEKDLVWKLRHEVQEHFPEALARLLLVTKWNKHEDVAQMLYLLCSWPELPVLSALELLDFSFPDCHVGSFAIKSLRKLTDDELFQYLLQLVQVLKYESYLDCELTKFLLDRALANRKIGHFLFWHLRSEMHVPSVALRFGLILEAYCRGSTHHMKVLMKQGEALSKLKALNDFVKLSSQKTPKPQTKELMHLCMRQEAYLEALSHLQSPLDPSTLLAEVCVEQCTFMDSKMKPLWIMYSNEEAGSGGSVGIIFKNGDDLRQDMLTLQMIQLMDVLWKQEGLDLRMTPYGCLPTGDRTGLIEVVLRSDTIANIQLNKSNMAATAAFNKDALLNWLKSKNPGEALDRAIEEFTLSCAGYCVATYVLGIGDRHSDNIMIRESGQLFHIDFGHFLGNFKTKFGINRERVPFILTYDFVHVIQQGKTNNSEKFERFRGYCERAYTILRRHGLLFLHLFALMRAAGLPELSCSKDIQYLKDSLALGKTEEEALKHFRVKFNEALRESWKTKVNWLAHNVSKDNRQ
T1 sequence (P27986 whole entry partner): as the sequence (P27986 whole entry partner) above

On to `CCn1c(-c2cnc(C)nc2)nc2c(NC3Cc4c(ncn4C(C)C)CC3C)ncnc21` (single isomer, unassigned) [Compound 5-19, 9-ethyl-N-[cis-5-methyl-1-(1-methylethyl)-4,5,6,7-tetrahydro-1H-benzimidazol-6-yl]-8-(2-methylpyrimidin-5-yl)-9H-purin-6-amine], for which, in assay [1], the half-inhibitory concentration (IC50) was 1.7 nM. Moreover, in assay [2], the “Selectivity versus PI3Kalpha” value is above 10.
For `CCn1c(-c2cnc(C)nc2)nc2c(NC3Cc4c(ncn4C(C)C)CC3C)ncnc21` (single isomer, unassigned) [Compound 5-20, 9-ethyl-N-[trans-5-methyl-1-(1-methylethyl)-4,5,6,7-tetrahydro-1H-benzimidazol-6-yl]-8-(2-methylpyrimidin-5-yl)-9H-purin-6-amine], in assay [1], the IC50 was found to be 120 nM. In addition, the “Selectivity versus PI3Kalpha” value in assay [2] is above 10.
Regarding `CCn1c(-c2cnc(C)nc2)nc2c(NC3CCc4ncn(C(C)C)c4C3C)ncnc21` (single isomer, unassigned) [Compound 5-21, 9-ethyl-N-[((6S, 7S) or (6R, 7R))-7-methyl-1-(1-methylethyl)-4,5,6,7-tetrahydro-1H-benzimidazol-6-yl]-8-(2-methylpyrimidin-5-yl)-9H-purin-6-amine], the IC50 in assay [1] amounted to 5.7 nM. The “Selectivity versus PI3Kalpha” value in assay [2] is above 10.
For the molecule `CCn1c(-c2cnc(C)nc2)nc2c(NC3CCc4ncn(C(C)C)c4C3C)ncnc21` (single isomer, unassigned) [Compound 5-22, 9-ethyl-N-[((6S, 7S) or (6R, 7R))-7-methyl-1-(1-methylethyl)-4,5,6,7-tetrahydro-1H-benzimidazol-6-yl]-8-(2-methylpyrimidin-5-yl)-9H-purin-6-amine], the IC50 in assay [1] is 260 nM. In addition, the “Selectivity versus PI3Kalpha” value in assay [2] is reported as above 10.
As for `CCn1c(-c2cnc(C)nc2)nc2c(NC3CCn4cnc(C(C)C)c4C3)ncnc21` (single isomer, unassigned) [Compound 6-1, (S or R)-9-ethyl-N-[1-(1-methylethyl)-5,6,7,8-tetrahydroimidazo[1,5-a]pyridin-7-yl]-8-(2-methylpyrimidin-5-yl)-9H-purin-6-amine], the IC50 in assay [1] was found to be 10 nM. In addition, the “Selectivity versus PI3Kalpha” value in assay [2] was above 10.
On to `CCn1c(-c2cnc(C)nc2)nc2c(N[C@H]3Cc4nnc(C5CC5)n4C3)ncnc21` [Compound 1-38, N-[(6S)-3-cyclopropyl-6,7-dihydro-5H-pyrrolo[2,1-c][1,2,4]triazol-6-yl]-9-ethyl-8-(2-methylpyrimidin-5-yl)-9H-purin-6-amine], for which the IC50 in assay [1] came to 5 nM. Besides, the “Selectivity versus PI3Kalpha” value in assay [2] is recorded as above 10.

The values above are taken from US10100064B2, “Purine inhibitors of human phosphatidylinositol 3-kinase delta” (Merck Sharp & Dohme Corp., priority 2014, dated 2018).
